Source: patent publication US12257284B2, “Lantibiotics, lantibiotic-producing bacteria, compositions and methods of production and use thereof” (MEMORIAL SLOAN-KETTERING CANCER CENTER, priority 2017, dated 2025)
Non-standard residues stand in square brackets, D forms with d. No end group written: not given here. Dhb = C/C=C(\N)C(=O)O; Dha = C=C(N)C(=O)O

Assays:
VRE [1] = experiment: Microscopy of VRE cultured with B. producta factor; format: cell-based, vancomycin-resistant Enterococcus; conditions: 10^8 CFU/mL VRE, 24 hours
Description: 10^7 CFU/mL B. producta was cultured for 24 hours anaerobically at 37° C. in BHIS. The culture supernatant was filtered through a 0.22 μm filter. Ammonium sulfate was added to the filtered culture supernatant at varying concentrations to precipitate proteins. Precipitated proteins were resolubilized in phosphate buffered saline (PBS) (2 mg/mL) and dialyzed. The dialyzed protein was returned to the original culture volume with supplemented PBS (the dialyzed protein was returned to the original culture volume with PBS) and samples were innoculated with 10^8 CFU/mL VRE and cultured for 24 hours anaerobically at 37° C. Bacteria were fixed onto slides for microscopy.

VRE [2] = experiment: VRE cultured with ammonium sulfate precipitated, dialyzed B. producta protein, VRE CFU quantitated; format: cell-based, vancomycin-resistant Enterococcus
Description: 10^7 CFU/mL B. producta was cultured for 24 hours anaerobically at 37° C. in BHIS. The culture supernatant was filtered through a 0.22 μm filter. Ammonium sulfate was added to the filtered culture supernatant at varying concentrations to precipitate proteins. Precipitated proteins were resolubilized in phosphate buffered saline (PBS) (2 mg/mL) and dialyzed. The dialyzed protein was returned to the original culture volume with fresh culture medium and samples were innoculated with 10^3 CFU/mL VRE and cultured for 6 or 24 hours anaerobically at 37° C. […] 10^7 CFU/mL B. producta was cultured for 24 hours anaerobically at 37° C. in BHIS. The culture supernatant was filtered through a 0.22 μm filter. Ammonium sulfate was added to the filtered culture supernatant at varying concentrations to precipitate proteins. Precipitated proteins were resolubilized in phosphate buffered saline (PBS) (2 mg/mL) and dialyzed (the dialyzed protein was returned to the original culture volume with PBS) and samples were innoculated with 10^3 CFU/mL VRE and cultured for 6 or 24 hours anaerobically at 37° C.
10^7 CFU/mL B. producta was cultured for 24 hours anaerobically at 37° C. in BHIS. The culture supernatant was filtered through a 0.22 μm filter. 45% ammonium sulfate was added to the filtered culture supernatant to precipitate proteins. The precipitate was resolubilized in PBS (2 mg/mL), then dialyzed. The dialyzed protein was incubated with Proteinase K (1 mg/mL) for 1 hour at 37° C. These conditions are sufficient to completely digest BSA at a concentration of 100 μg/m, as evidenced by the […] in gel electrophoresis. The dialyzed protein/proteinase K solution was returned to its original volume in fresh culture medium and inoculated with 10^3 CFU/mL VRE the cultured for 6 or 24 hours anaerobically at 37° C.
10^7 CFU/mL B. producta was cultured for 24 hours anaerobically at 37° C. in BHIS. The culture supernatant was filtered through a 0.22 μm filter. 45% ammonium sulfate was added to the filtered culture supernatant to precipitate proteins. The precipitate was resolubilized in PBS (2 mg/mL), then dialyzed. The dialyzed protein was incubated at 100° C. for ten minutes. The heated, dialyzed protein solution was returned to its original volume in fresh culture medium and inoculated with 10^3 CFU/mL VRE the cultured for 6 or 24 hours anaerobically at 37° C.
10^7 CFU/mL B. producta was cultured for 24 hours anaerobically at 37° C. in BHIS. The culture supernatant was filtered through a 0.22 μm filter. Ammonium sulfate was added to the filtered culture supernatant at varying concentrations to precipitate proteins. […] Fecal pellets were collected 0, 5, 10 days after bacterial consortia transplant, and VRE was quantitated.

VRE [3] = experiment: VRE cultured in cecal supernatant of mice colonized with B. producta strains; format: cell-based, vancomycin-resistant Enterococcus; conditions: cecal content 7 days post-transplant, 100 mg/mL, filtered; VRE 10^3 CFU/mL, 6 hours; FIG. 20
Description: 6-8 week old, C57BL/6 mice were administered ampicillin (0.5 g/L) in the drinking water for 5 days, and subsequently orally gavaged with a bacterial consortia (10^7 CFU per bacterial isolate). Bacterial consortia for oral gavage were prepared by individually culturing the B. producta Caballero strain, or the B. producta Honda strain, on Columbia base medium (agar, peptones, cornstarch) plus 5% sheep blood agar plates, anaerobically at 37° C. overnight. Each isolate was subsequently harvested and resuspended in reduced phosphate buffered saline (PBS) to a final concentration of 10^8 CFU/mL. 7 days post-transplant, cecal content was harvested and resuspended in PBS to a final concentration of 100 mg/mL. Cecal supernatant was collected by filtration through a 0.22 μm filter. VRE inoculated at 10^3 CFU/mL in the cecal supernatant and incubated at 37° C. aerobically. VRE was cultured for 6 hours and quantitated.

gram-positive bacteria = experiment: Minimum inhibitory concentration by serial dilution against gram-positive bacterial strains; format: cell-based; conditions: dialyzed protein serially diluted in BHIS, 10^5 CFU/mL bacteria, 24 hours; FIG. 35
Description: 10^7 CFU/mL B. producta Caballero strain or Honda strain was cultured for 24 hours in BHIS anaerobically at 37° C. The culture supernatant was filtered through a 0.22 μm filter. Ammonium sulfate was added to the filtered culture supernatant at varying concentrations to precipitate proteins. Precipitated proteins were resolubilized in water (5 mg/mL) and dialyzed. The dialyzed protein or nisin (1:2) were serially diluted with fresh BHIS across a row of wells in a 96 well plate per gram-positive bacteria strain. 10^5 CFU/mL of various gram-positive bacterial strains indicated in FIG. 35 were cultured for 24 hours anaerobically at 37° C. The minimum inhibitory concentration (highest dilution at which gram-positive bacteria growth was inhibited) was thus identified.

L. monocytogenes = experiment: Spectrum: bacterial survival with B. producta culture extract; format: cell-based; conditions: greater than 100 kDa concentrated supernatant; 6, 24 or 48 hours; FIG. 34
Description: (§1) 10^7 CFU/mL B. producta was cultured for 0, 6, 24 hours in BHIS anaerobically at 37° C. The culture supernatant at 0, 6, and 24 hours was filtered through a 0.22 μm filter, then concentrated by ultrafiltration with a molecular weight cut off greater than 100 kDa. The concentrated culture supernatant was then diluted to the original volume with fresh BHIS culture medium. 10^3 CFU/mL VRE, B. producta, C. bolteae, P. distasonis, B. sartorii, C. difficile, K pneumoniae, E. coli, S. aureus, E. faecalis, E. faecium, or L monocytogenes were cultured for 6, 24, or 48 hours anaerobically at 37° C.

B. producta = experiment: as above; format: cell-based; conditions: greater than 100 kDa concentrated supernatant; 6, 24 or 48 hours; FIG. 34
Description: as §1

S. aureus = experiment: as above; format: cell-based; conditions: greater than 100 kDa concentrated supernatant; 6, 24 or 48 hours; FIG. 34
Description: as §1

K. pneumoniae = experiment: as above; format: cell-based; conditions: greater than 100 kDa concentrated supernatant; 6, 24 or 48 hours; FIG. 34
Description: as §1

E. faecalis = experiment: as above; format: cell-based; conditions: greater than 100 kDa concentrated supernatant; 6, 24 or 48 hours; FIG. 34
Description: as §1

E. coli = experiment: as above; format: cell-based; conditions: greater than 100 kDa concentrated supernatant; 6, 24 or 48 hours; FIG. 34
Description: as §1

B. sartorii = experiment: as above; format: cell-based; conditions: greater than 100 kDa concentrated supernatant; 6, 24 or 48 hours; FIG. 34
Description: as §1

P. distasonis = experiment: as above; format: cell-based; conditions: greater than 100 kDa concentrated supernatant; 6, 24 or 48 hours; FIG. 34
Description: as §1

C. difficile = experiment: as above; format: cell-based; conditions: greater than 100 kDa concentrated supernatant; 6, 24 or 48 hours; FIG. 34
Description: as §1

E. faecium = experiment: as above; format: cell-based; conditions: greater than 100 kDa concentrated supernatant; 6, 24 or 48 hours; FIG. 34
Description: as §1

For “B. producta factor: VRE-inhibiting factor secreted by B. producta, a lantibiotic according to the disclosure (SEQ. ID. No.: 3) (I[Dhb][Dha]I[Dha]LA[Dhb]PGAK[Dhb]GALMGAV[Dhb]GILM[Dhb]APVQ[Dhb]A[Dhb]AGAQI[Dhb]GK; not fully specified; also: lantibiotic (lanthionine bridges not given here))”, the “Phase contrast microscopy of VRE versus control” value (VRE [1]; FIG. 21) was “smaller, less numerous, more frequently in a single coccus arrangement and surrounded by more cellular debris”, the “Fluorescence microscopy of VRE (SYTO9 / propidium iodide) versus control” value (VRE [1]; FIG. 22) was “less viable” and the “Gram stain light microscopy of VRE versus control” value (VRE [1]; FIG. 23) was “generally lacked purple staining”. For the same substance, the “Number of VRE (CFU) over time in PBS (bactericidal effect)” value (VRE [2]; 10^5 CFU/mL VRE, 6-120 hours in PBS, FIG. 18) was “permanent decline in the number of VRE”, the “VRE inhibition after boiling” value (VRE [2]; 45% ammonium sulfate precipitate, 100° C. for ten minutes, FIG. 13) was “able to inhibit VRE” and the “VRE inhibition after Proteinase K digestion” value (VRE [2]; 45% ammonium sulfate precipitate, Proteinase K 1 mg/mL, 1 hour at 37° C., FIG. 12) was “able to inhibit VRE”. For the same substance, the “VRE inhibition by ammonium sulfate precipitate” value (VRE [2]; precipitate resolubilized, dialyzed, returned to volume with PBS, 6 or 24 hours, FIG. 11) was “inhibited VRE”, the “VRE growth in cecal supernatant of colonized mice” value (VRE [3]) was “inhibits VRE” and the “Inhibition of various gram-positive bacterial strains (minimum inhibitory concentration, highest dilution)” value (gram-positive bacteria) was “broadly inhibits gram-positive bacteria”. The “Inhibition of L. monocytogenes (survival relative to negative control extract)” value (L. monocytogenes) was “inhibited”, the “Inhibition of B. producta (survival relative to negative control extract)” value (B. producta) was “not” and the “Inhibition of S. aureus (survival relative to negative control extract)” value (S. aureus) was “inhibited”. For the same substance, the “Inhibition of K. pneumoniae (survival relative to negative control extract)” value (K. pneumoniae) was “not”, the “Inhibition of E. faecalis (survival relative to negative control extract)” value (E. faecalis) was “inhibited” and the “Inhibition of E. coli (survival relative to negative control extract)” value (E. coli) was “not”. The “Inhibition of B. sartorii (survival relative to negative control extract)” value (B. sartorii) was “not”, the “Inhibition of P. distasonis (survival relative to negative control extract)” value (P. distasonis) was “not” and the “Inhibition of C. difficile (survival relative to negative control extract)” value (C. difficile) was “not”. The “Inhibition of E. faecium (survival relative to negative control extract)” value (E. faecium) was “inhibited”.
